Square brackets hold non-standard residues; d marks the D form. Ends that are not written are not given here. Dap = NC[C@H](N)C(=O)O
System: monoclonal antibody 2F5
Experiment: Immuno-complex formation of constrained peptides with monoclonal antibody 2F5
Assay type: binding, human
Details: subsequently co-crystallized with the Fab′ fragment

monoclonal antibody 2F5, sequence (as listed by the source, other chains not shown): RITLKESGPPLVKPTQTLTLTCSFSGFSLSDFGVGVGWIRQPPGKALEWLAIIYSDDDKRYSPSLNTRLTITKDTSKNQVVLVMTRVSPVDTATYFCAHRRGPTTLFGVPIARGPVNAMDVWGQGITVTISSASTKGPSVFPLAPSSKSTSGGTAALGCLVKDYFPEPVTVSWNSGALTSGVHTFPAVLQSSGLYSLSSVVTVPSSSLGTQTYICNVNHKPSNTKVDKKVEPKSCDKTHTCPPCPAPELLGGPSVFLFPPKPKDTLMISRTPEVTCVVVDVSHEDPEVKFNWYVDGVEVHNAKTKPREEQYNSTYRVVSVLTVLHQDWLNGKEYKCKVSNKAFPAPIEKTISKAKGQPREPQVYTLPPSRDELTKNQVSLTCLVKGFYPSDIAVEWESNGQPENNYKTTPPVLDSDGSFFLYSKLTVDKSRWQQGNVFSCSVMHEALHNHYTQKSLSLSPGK

Row | Substance | formation of an immuno-complex with monoclonal antibody 2F5
1 | E[Dap]DKWES [CLP-1309] | capable of forming an immuno-complex
2 | ECDKWCS [CLP-634] | capable of forming an immuno-complex

Reference: patent publication US7342090B1, “Fab-epitope complex from the HIV-1 cross-neutralizing monoclonal antibody 2F5” (University of Toronto, priority 1999, dated 2008)
